Assay results from patent US12673115B2, “Nucleic acid-peptide-nucleic acid conjugate molecules and methods of making the same” (ARIZONA BOARD OF REGENTS ON BEHALF OF ARIZONA STATE …, priority 2021, dated 2026).
Square brackets hold non-standard residues; d marks the D form. Primed or numbered codes have the meaning given here. Lys(N3) = [N-]=[N+]=NCCCC[C@H](N)C(=O)O; prA″ = not defined here

Columns and labels:
[1] = test system: integrin; conditions: cyclic conformation approximating presentation on fibronectin; cited from earlier work
[2] = biological target: T1, human matrix metalloproteinase 8 (MMP8) (Homo sapiens, UniProt P22894); experiment: Cleavage of peptide-linked DX tile dimer by MMP8, native PAGE; format: biochemical; conditions: 4 ng protein, incubation for 48 h at 37° C. in PBS
T1 construct: purchased PerkinElmer
Excerpt: As previously mentioned, one of our goals for these DPD triblock molecules is to use them as enzymatically-cleavable latches for a DNA nanostructure, e.g. to close the lid of a DNA origami box or “nano-bot”. To probe this effect, we used our DPD triblock to link together two model DNA nanostructures: double crossover (“DX” tiles), defined nanoscale objects 14 nm in length and 4 nm wide. DX tiles are composed of five unique strands—two edge strands, one central strand, and two crossover strands—and we designed two tiles that would have DNA1 and DNA2 as respective crossover strands (see FIG. 3A and Examples for tile design and strand composition). We surmised that upon annealing (95-4° C., over 2 h) the constituent strands for these tiles with the DNA1-MMPpep-DNA2 conjugate both tiles would form simultaneously, with the full hybridization of DNA1 and DNA2 into the corresponding tiles breaking the DPD hairpin. Addition of MMP8 to the DX tile dimer should cleave MMPpep, and restore the two separate DNA nanostructures.
We probed this system by native (non-denaturing) PAGE, FIG. 3A. Lanes 1 and 2 show the annealed DX tile with DNA2 incorporated, and the second DX tile with DNA1-MMPpep-(prA) respectively. […]
Polyacrylamide gel electrophoresis (PAGE). […] DX tiles were analyzed using 6% native polyacrylamide gels, with 1×TAE containing 12.5 mM Mg^2+ as a running buffer, at 200 V for 160 min.

T1 sequence (P22894 101-467): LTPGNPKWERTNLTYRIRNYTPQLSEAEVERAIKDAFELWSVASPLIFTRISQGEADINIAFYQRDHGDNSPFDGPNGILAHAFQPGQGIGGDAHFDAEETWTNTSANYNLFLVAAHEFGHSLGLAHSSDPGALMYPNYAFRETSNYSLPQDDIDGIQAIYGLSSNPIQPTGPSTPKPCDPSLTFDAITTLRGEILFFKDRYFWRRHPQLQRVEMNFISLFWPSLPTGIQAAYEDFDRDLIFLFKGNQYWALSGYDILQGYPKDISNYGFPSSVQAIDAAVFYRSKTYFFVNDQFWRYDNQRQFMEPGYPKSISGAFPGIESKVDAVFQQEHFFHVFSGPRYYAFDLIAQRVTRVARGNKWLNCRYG

Substance	increase in binding efficiency on constraining in a cyclic conformation [1]	cleavage of DX tile dimer to individual tiles after addition of MMP8 [2]
RGDS	several orders of magnitude	–
(prA)GQGIPQGWGG(azK) ({prA″}-GQGIPQGWGG[Lys(N3)]-NH2; not fully specified; printed as (prA)GQGIPQGWGG(azK); reading uncertain) [MMPpep-scram, tested as linker of a tile dimer]	–	did not show any cleavage to individual tiles
